From article PMC10495264 (Nature Cell Biology, 2023)
Where “and” joins values, the source holds several entries; their conditions need not be identical. Identical values can stand only once.

Assays:
mTORC2 = mTORC2 activity in HEK293FT cells, p-AKT^S473/AKT immunoblot; assay type: cell-based, human
Description: Phosphorylation of Ypk1 was used as the TORC2 readout. Phosphorylation of Snf1 was used as the AMPK activation readout. Total Snf1 was detected with an antibody to a histidine (His) stretch in Snf1. […] Source numerical data and unprocessed blots are provided. Source data
(§1) Amino-acid-starvation experiments were carried out as described before[42],[43]. […] For the lipid depletion experiments, cells were cultured in medium containing 10% charcoal-stripped FBS (A3382101, Thermo Fisher Scientific), instead of full FBS, for 24 h before treatments with FASN inhibitors were performed. For FA supplementation, each FA was first conjugated to 10% FA-free BSA (fraction V; cat. no. 10735086001, Roche) for 1 h at 50 °C in a 50:50 volumetric ratio. The BSA-conjugated C16:0, C16:1, C18:1 and C18:2 FAs (100 μM) were then added to the media both 16 h previous to and at the start of the treatment with FASN inhibitors.
(§2) For standard SDS–PAGE and immunoblotting experiments, cells from a well of a 12-well plate were lysed in 250 μl of ice-cold Triton lysis buffer (50 mM Tris pH 7.5, 1% Triton X-100, 150 mM NaCl, 50 mM NaF, 2 mM Na-vanadate and 0.011 g ml^−1 β-glycerophosphate) supplemented with 1×PhosSTOP phosphatase inhibitors (cat. no. 4906837001, Roche) and 1×cOmplete protease inhibitors (cat. no. 11836153001, Roche) for 10 min on ice. The samples were clarified by centrifugation (20,000g, 15 min, 4 °C) and the supernatants were boiled in 1×SDS sample buffer (5×SDS sample buffer: 350 mM Tris–HCl pH 6.8, 30% glycerol, 600 mM DTT, 12.8% SDS and 0.12% bromophenol blue). The band intensities were quantified using the ImageJ software.

mTORC1 [1] = target: T1, mTORC1 (Homo sapiens, UniProt P42345); assay: mTORC1 complex stability/composition, mTOR co-immunoprecipitation of Raptor and mLST8; conditions: cells treated with cerulenin (4 h)
T1 construct: endogenous mTORC1 complexes were purified from HEK293FT cells; endogenous in cells; host or cells: HEK293FT (immunoprecipitation of endogenous mTOR); the 4E-BP1 substrate was made in E. coli BL21 RP
Description: For the mammalian endogenous protein co-immunoprecipitation experiments, cells of a near-confluent 10-cm dish were lysed in CHAPS IP buffer (50 mM Tris pH 7.5, 0.3% CHAPS detergent, 150 mM NaCl, 50 mM NaF, 2 mM Na-vanadate and 0.011 g ml^−1 β-glycerophosphate) supplemented with 1×PhosSTOP phosphatase inhibitors and 1×EDTA-free cOmplete protease inhibitors (11873580001, Roche) for 10 min on ice. The samples were clarified by centrifugation (20,000g, 15 min, 4 °C) and the supernatants were subjected to immunoprecipitation by the addition of 3 μl of each antibody, incubation at 4 °C with rotation for 3 h, followed by incubation (4 °C with rotation) with 30 μl of a pre-washed Protein A agarose bead slurry (cat. no. 11134515001, Roche) for an additional hour. The beads were then washed four times with CHAPS IP wash buffer (50 mM Tris pH 7.5, 0.3% CHAPS detergent, 150 mM NaCl and 50 mM NaF) and boiled in 1×SDS loading buffer. A portion of the samples was kept aside as the input before the addition of antibodies. The samples were analysed by SDS–PAGE and the presence of co-immunoprecipitated proteins was detected by immunoblotting with the appropriate specific antibodies.
To test whether Mal-CoA influences mTORC1 complex stability/composition, 1 mM Mal-CoA lithium salt solution was added to the lysates before the immunoprecipitation of mTOR, as described earlier. […]

AMPK = AMPK and ACC1 phosphorylation immunoblot; assay type: cell-based, human; conditions: relative to DMSO
Description: as §2
(§3) Data in graphs are shown as the mean ± s.e.m. *P < 0.05, **P < 0.005. Source numerical data and unprocessed blots are provided. Source data

mTORC1 [2] = assay: mTORC1 activity in HEK293T cells (WT, AMPKα1/2 KO, DEPDC5 and RagA/B triple KO), p-S6K^T389/S6K immunoblot; assay type: cell-based, human
Description: Source numerical data and unprocessed blots are provided. Source data
as §2
Data in graphs are shown as the mean ± s.e.m. *P < 0.05, **P < 0.005, ***P < 0.0005. Source numerical data and unprocessed blots are provided. Source data

mTORC1 [3] = assay: mTORC1 activity in U2OS cells, immunoblot; assay type: cell-based, human; conditions: Fasnall 25 μM 30 min; cerulenin 50 μM 2 or 4 h
[4] = test system: mTOR lysosomal localization; assay: Co-localization of mTOR with LAMP2, confocal microscopy; assay type: cell-based, human; conditions: for mTOR/LAMP2 colocalization (Manders' coefficient), Mean: mean of pooled individual cells (ED Fig. 8d), DMSO mean 0.383214
ERK1/2 = ERK1/2 phosphorylation immunoblot; assay type: cell-based, human; conditions: ED Fig. 5m; relative to DMSO
Description: as §2, §3

mTORC1 [5] = assay: mTORC1 activity in HEK293FT cells (WT and knockout lines), phosphorylation of S6K, 4E-BP1, Grb10, TFEB by immunoblot; assay type: cell-based, human
Description: Data represent the median fluorescence intensity of OPP Alexa Fluor 488; n = 6 biological replicates from two independent experiments. b,c,e,g,i,k,l, Data are the mean ± s.e.m. *P < 0.05, **P < 0.005, ***P < 0.0005. […] Source numerical data and unprocessed blots are provided. Source data
as §1, §2

mTORC1 [6] = assay: mTORC1 activity in mouse embryonic fibroblasts (MEFs), p-S6K^T389/S6K immunoblot; assay type: cell-based; conditions: for p-S6K(T389)/S6K, Mean: ED Fig. 4e, relative to DMSO
[7] = Fasnall 25 μM 30 min, cerulenin 50 μM 4 h

C/C=C/C/C=C/CCC(=O)[C@H]1O[C@H]1C(N)=O [cerulenin]
phosphorylation of Akt (mTORC2 substrate) (mTORC2; [7]): did not significantly alter
p-AKT(S473)/AKT, Mean (mTORC2; cerulenin 50 μM, 4 h, DMSO = 1, n = 3, Fig. 3d): 0.8351
stability and composition of mTORC1 (mTORC1 [1]): not affected
p-AMPK(T172)/AMPK, Mean (AMPK; ED Fig. 5e): 0.8121
p-ACC1(S79)/ACC1, Mean (AMPK; ED Fig. 5f): 1.111
p-S6K(T389)/S6K, Mean (mTORC1 [2]; ED Fig. 7c, AMPKa1/2 KO, 2h, relative to AMPKa1/2 KO DMSO): 0.7893
p-S6K(T389)/S6K, Mean (mTORC1 [2]; ED Fig. 7c, AMPKa1/2 KO, 4h, relative to AMPKa1/2 KO DMSO): 0.6235
p-S6K(T389)/S6K, Mean (mTORC1 [2]; ED Fig. 7c, WT, 2h, relative to WT DMSO): 0.7439
p-S6K(T389)/S6K, Mean (mTORC1 [2]; ED Fig. 7c, WT, 4h, relative to WT DMSO): 0.528
p-S6K(T389)/S6K, Mean (mTORC1 [2]; ED Fig. 7h, DEPDC5+RagA/B KO, 2h, relative to DEPDC5+RagA/B KO DMSO): 0.6252
p-S6K(T389)/S6K, Mean (mTORC1 [2]; ED Fig. 7h, DEPDC5+RagA/B KO, 4h, relative to DEPDC5+RagA/B KO DMSO): 0.4969
p-S6K(T389)/S6K, Mean (mTORC1 [2]; ED Fig. 7h, WT, 2h, relative to WT DMSO): 0.7136
p-S6K(T389)/S6K, Mean (mTORC1 [2]; ED Fig. 7h, WT, 4h, relative to WT DMSO): 0.5404
mTORC1 activity in U2OS (mTORC1 [3]): downregulates
mTOR/LAMP2 colocalization (Manders' coefficient) ([4]; Ceru 2h, Replicate 1, individual cells (ED Fig. 8d)): 0.444 and 0.38 and 0.427 and 0.715 and 0.517 and 0.116 and 0.414 and 0.188 and 0.399 and 0.209 and 0.241 and 0.28 and 0.349 and 0.265 and 0.345 and 0.315 and 0.445 and 0.603 and 0.407 and 0.223 and 0.37 and 0.271 and 0.185
mTOR/LAMP2 colocalization (Manders' coefficient) ([4]; Ceru 2h, Replicate 3, individual cells (ED Fig. 8d)): 0.327 and 0.378 and 0.177 and 0.225 and 0.217 and 0.171 and 0.169 and 0.316 and 0.307 and 0.469 and 0.189 and 0.266 and 0.237 and 0.271 and 0.179 and 0.175 and 0.173 and 0.339
mTOR/LAMP2 colocalization (Manders' coefficient), Mean ([4]; Ceru 2h): 0.3276
mTOR/LAMP2 colocalization (Manders' coefficient) ([4]; Ceru 4h, Replicate 1, individual cells (ED Fig. 8d)): 0.295 and 0.311 and 0.327 and 0.333 and 0.217 and 0.408 and 0.17 and 0.428 and 0.395 and 0.227 and 0.135 and 0.322 and 0.371 and 0.272 and 0.219 and 0.26 and 0.303
mTOR/LAMP2 colocalization (Manders' coefficient) ([4]; Ceru 4h, Replicate 3, individual cells (ED Fig. 8d)): 0.327 and 0.378 and 0.177 and 0.225 and 0.217 and 0.171 and 0.169 and 0.316 and 0.307 and 0.469 and 0.189 and 0.266 and 0.237 and 0.271 and 0.179 and 0.175 and 0.173 and 0.339
mTOR/LAMP2 colocalization (Manders' coefficient), Mean ([4]; Ceru 4h): 0.2619
mTOR localization at lysosomes (co-localization with LAMP2) ([4]; HEK293FT, 25 μM Fasnall or 50 μM cerulenin): significant dissociation
p-ERK(T202/Y204)/ERK, Mean (ERK1/2): 1.697
p-Grb10(S476)/Grb10, Mean (mTORC1 [5]; ED Fig. 3e, relative to DMSO): 0.6323
p-TFEB(S211)/TFEB, Mean (mTORC1 [5]; ED Fig. 3f, relative to DMSO): 0.6501
p-4E-BP1(T37/46)/4E-BP1, Mean (mTORC1 [5]; ED Fig. 3g, relative to DMSO): 0.1632
p-S6K(T389)/S6K, Mean (mTORC1 [5]; ED Fig. 6b, relative to Luc): 0.5038
mTORC1 activity towards Grb10 and TFEB (cerulenin: also 4E-BP1) (mTORC1 [5]; [7]): downregulates
mTORC1 activity (phosphorylation of S6K, 4E-BP1, Grb10 and TFEB) (mTORC1 [5]; HEK293FT cells, Fasnall, cerulenin or siFASN): suppressed
p-S6K(T389)/S6K, Mean (mTORC1 [5]; HEK293FT, 50 μM cerulenin 2h, DMSO = 1, n = 8, Fig. 2i): 0.7401
p-S6K(T389)/S6K, Mean (mTORC1 [5]; HEK293FT, 50 μM cerulenin 4h, DMSO = 1, n = 8, Fig. 2i): 0.4346
p-S6K(T389)/S6K, Mean (mTORC1 [5]; TSC1 KO HEK293FT, cerulenin 50 μM, 4 h, respective DMSO = 1, n = 3, Fig. 5p): 0.4527
p-S6K(T389)/S6K, Mean (mTORC1 [5]; WT HEK293FT, cerulenin 50 μM, 4 h, respective DMSO = 1, n = 3, Fig. 5p): 0.3623
p-S6K(T389)/S6K, Mean (mTORC1 [6]; 2h): 0.8743
p-S6K(T389)/S6K, Mean (mTORC1 [6]; 4h): 0.3448
mTORC1 activity in MEFs (mTORC1 [6]; Fasnall 25 μM 30 min, cerulenin 50 μM 2 or 4 h): downregulates
